Our source for the CC50 and MIC values is ChEMBL document CHEMBL4513141, “CO-ADD screening of NIH (USA) - Clinical Collection” (2021).

One assay relates to HEK293. Kind of assay: cells. Format: functional, Homo sapiens, ATCC CRL1573. Conditions: ASSAY_TEST Inhibition of Cell Viability, detection method Resazurin, Fluorescence (ex560/em590), MEDIA DMEM with 10% FBS, plate type 384well, TC, CORNING #3712, time 18 hr. In general terms: Alamar Blue is a resazurin reagent that responds to reducing activity.
In another assay the test system is Staphylococcus aureus. Briefly: microbe, parasite or virus in culture. Conditions: ATCC 43300, 18 h, ASSAY_TEST Inhibition of Bacterial Growth, detection method Absorption (OD600), MEDIA CAMHB, plate type 384well, NBS, CORNING #3640.
The subject of another assay is Klebsiella pneumoniae. Briefly: microbe, parasite or virus in culture. Conditions: ATCC 700603, 18 h, ASSAY_TEST Inhibition of Bacterial Growth, detection method Absorption (OD600), MEDIA CAMHB, plate type 384well, NBS, CORNING #3640.
A further assay has as its system Acinetobacter baumannii. Briefly: microbe, parasite or virus in culture. Conditions: ATCC 19606, 18 h, ASSAY_TEST Inhibition of Bacterial Growth, detection method Absorption (OD600), MEDIA CAMHB, plate type 384well, NBS, CORNING #3640.
The test system of a further assay is Pseudomonas aeruginosa. Kind of assay: microbe, parasite or virus in culture. Conditions: ATCC 27853, 18 h, ASSAY_TEST Inhibition of Bacterial Growth, detection method Absorption (OD600), MEDIA CAMHB, plate type 384well, NBS, CORNING #3640.
The subject of another assay is Candida albicans. Kind of assay: microbe, parasite or virus in culture. Conditions: ATCC 90028, ASSAY_TEST Inhibition of Fungal Growth, detection method Absorption (OD530), plate type 384well, NBS, CORNING #3640.
A further assay concerns Escherichia coli. Kind of assay: microbe, parasite or virus in culture. Conditions: ATCC 25922, 18 h, ASSAY_TEST Inhibition of Bacterial Growth, detection method Absorption (OD600), MEDIA CAMHB, plate type 384well, NBS, CORNING #3640.
Where [1] appears, read: Homo sapiens, ATCC CRL1573, HEK293.

Molecules are shown by their SMILES. Values after ≈ are worked out from the molar mass of the structure shown. Where a name gives a salt, the structure may show the parent alone.

Description for Acinetobacter baumannii: Antibacterial activity against Acinetobacter baumannii ATCC 19606 (CO-ADD:GN_034); MIC in CAMBH media using NBS plates, by OD600
Description for Candida albicans: Antifungal activity against Candida albicans ATCC 90028 (CO-ADD:FG_001); MIC in YNB media using NBS plates, by OD630
Description for Cryptococcus neoformans: Antifungal activity against Cryptococcus neoformans H99 ATCC 208821 (CO-ADD:FG_002); MIC in YNB media using NBS plates, by Resazurin OD(600-570)
Description for Escherichia coli: Antibacterial activity against Escherichia coli ATCC 25922 (CO-ADD:GN_001); MIC in CAMBH media using NBS plates, by OD(600)
Description for Klebsiella pneumoniae: Antibacterial activity against Klebsiella pneumoniae MDR ATCC 70063 (CO-ADD:GN_003); MIC in CAMBH media using NBS plates, by OD(600)
Description for Pseudomonas aeruginosa: Antibacterial activity against Pseudomonas aeruginosa ATCC 27853 (CO-ADD:GN_042); MIC in CAMBH media using NBS plates, by OD(600)
Description for Staphylococcus aureus: Antibacterial activity against Staphylococcus aureus MRSA ATCC 43300 (CO-ADD:GP_020); MIC in CAMBH media, using NBS plates, by OD(600)

`O=c1[nH]cnc2c1ncn2[C@H]1CC[C@@H](CO)O1` [DIDANOSINE] returned a cytotoxic concentration (CC50) in the assay on HEK293 (setting [1]) of over 10 µM. The MIC in the assay on Staphylococcus aureus, against Klebsiella pneumoniae, with Cryptococcus neoformans, against Acinetobacter baumannii, against Pseudomonas aeruginosa and against Candida albicans was over 10 µM throughout. In the assay with Escherichia coli, the MIC is over 10 µM.
On to `CC(C)/N=c1\cc2n(-c3ccc(Cl)cc3)c3ccccc3nc-2cc1Nc1ccc(Cl)cc1` [CLOFAZIMINE], for which the 50% cytotoxic concentration (CC50) with HEK293 stood at 0.31 µM. Moreover, the MIC in the assay on Staphylococcus aureus, in the assay with Klebsiella pneumoniae, against Cryptococcus neoformans, with Acinetobacter baumannii, in the assay on Pseudomonas aeruginosa and with Candida albicans was over 10 µM throughout. The same compound gave an MIC against Escherichia coli of over 10 µM.
With `O=c1c2ccccc2[se]n1-c1ccccc1` [EBSELEN], the CC50 in the assay on HEK293 (setting [1]) was over 10 µM. The MIC is over 10 µM with Staphylococcus aureus; over 10 µM in the assay on Klebsiella pneumoniae; 2.5 µM (≈ 0.685 µg/mL) in the assay on Cryptococcus neoformans; over 10 µM against Acinetobacter baumannii; over 10 µM in the assay on Pseudomonas aeruginosa; 5 µM (≈ 1.37 µg/mL) in the assay with Candida albicans. Besides, the MIC against Escherichia coli was over 10 µM.
`CC(=O)[C@]1(O)Cc2c(O)c3c(c(O)c2[C@@H](O[C@H]2C[C@H](N)[C@H](O)[C@H](C)O2)C1)C(=O)c1ccccc1C3=O` [IDARUBICIN HYDROCHLORIDE] returned a CC50 in the assay on HEK293 (setting [1]) of over 10 µM. Also, the MIC is 5 µM in the assay with Staphylococcus aureus; over 10 µM in the assay on Klebsiella pneumoniae; over 10 µM in the assay with Cryptococcus neoformans; over 10 µM in the assay on Acinetobacter baumannii; over 10 µM against Pseudomonas aeruginosa; over 10 µM in the assay with Candida albicans. This compound also came in with an MIC against Escherichia coli of over 10 µM.
Take `Clc1ccc(COC(Cn2ccnc2)c2ccc(Cl)cc2Cl)c(Cl)c1` (configuration not stated) [MICONAZOLE NITRATE]: the 50% cytotoxic concentration (CC50) in the assay with HEK293 (setting [1]) was over 10 µM. Further, the MIC against Staphylococcus aureus was over 10 µM; in the assay on Klebsiella pneumoniae, over 10 µM; in the assay with Cryptococcus neoformans, 0.625 µM; with Acinetobacter baumannii, over 10 µM; in the assay with Pseudomonas aeruginosa, over 10 µM; in the assay with Candida albicans, at most 0.0781 µM. In the assay on Escherichia coli, the MIC is over 10 µM.
In turn, `CC[C@H]1OC(=O)[C@H](C)[C@@H](O[C@H]2C[C@@](C)(OC)[C@@H](O)[C@H](C)O2)[C@H](C)[C@@H](O[C@@H]2O[C@H](C)C[C@H](N(C)C)[C@H]2O)[C@](C)(O)C[C@@H](C)CN(C)[C@H](C)[C@@H](O)[C@]1(C)O` [AZITHROMYCIN] yielded a CC50 in the assay with HEK293 (setting [1]) of over 10 µM. The MIC in the assay on Staphylococcus aureus is over 10 µM; in the assay with Klebsiella pneumoniae it was over 10 µM; in the assay with Cryptococcus neoformans, over 10 µM; against Acinetobacter baumannii, over 10 µM; against Pseudomonas aeruginosa it was 10 µM (≈ 7.49 µg/mL); in the assay on Candida albicans, over 10 µM. This compound registered an MIC against Escherichia coli of 10 µM (≈ 7.49 µg/mL).
Take `CCn1cc(C(=O)O)c(=O)c2ccc(C)nc21` [NALIDIXIC ACID]: the CC50 in the assay on HEK293 (setting [1]) was over 10 µM. In addition, the MIC with Staphylococcus aureus, against Klebsiella pneumoniae, in the assay on Cryptococcus neoformans, against Acinetobacter baumannii, against Pseudomonas aeruginosa and with Candida albicans was over 10 µM in each case. Besides, in the assay on Escherichia coli, the MIC was over 10 µM.
In the assay with HEK293 (setting [1]), `NC(=O)OCC(COC(N)=O)c1ccccc1` registered a CC50 of over 10 µM. Also, the MIC against Staphylococcus aureus, with Klebsiella pneumoniae, in the assay with Cryptococcus neoformans, in the assay with Acinetobacter baumannii, against Pseudomonas aeruginosa and with Candida albicans was over 10 µM throughout. In the assay on Escherichia coli, the MIC was over 10 µM.
Take `CC1(C)SC2C(NC(=O)Cc3ccccc3)C(=O)N2C1C(=O)O` (configuration not stated): the CC50 in the assay on HEK293 (setting [1]) was over 10 µM. In addition, the MIC in the assay with Staphylococcus aureus, against Klebsiella pneumoniae, against Cryptococcus neoformans, with Acinetobacter baumannii, in the assay on Pseudomonas aeruginosa and in the assay with Candida albicans was over 10 µM in each case. The MIC in the assay with Escherichia coli is over 10 µM.

For orientation: CC50 means the concentration that lowers cell viability or growth by half. Low readings indicate greater toxicity to the cells, high ones lower toxicity to the cells.
